Laboratory results published in patent publication US20220296628A1, “RNA COMBINATIONS AND COMPOSITIONS WITH DECREASED IMMUNOSTIMULATORY PROPERTIES” (CureVac AG, priority 2019, published 2022).

Key:
mice (strain 129SV) [1] = assay: In vivo bioluminescence imaging of PpLuc expression after i.v. injection of LNP-formulated PpLuc mRNA with or without oligonucleotide; parameters: species or system mouse; details: 24 hours post single i.v. injection, 10 μg or 30 μg of mRNA (either dose), oligo 20% or 6.7% mass, compared to PpLuc mRNA without Gm18 (FIG. 2)
Description: For preparation of Lipid nanoparticles (LNP) containing both PpLuc mRNA and 2-O-methylated oligonucleotide, first the 2′-O-methylated oligonucleotide was added to PpLuc mRNA at a weight percentage of either 20% or 6.7% (see Table 3). LNP containing PpLuc mRNA either with or without admixture of 2-O-methylated oligonucleotide were prepared using cationic lipid, cholesterol, PEG-lipid and a neutral lipid. The mRNA was diluted to 1 g/L in citrate buffer, pH 4. The ethanolic lipid solution was mixed with the aqueous RNA solution at a ratio of 1:3 (vol/vol) using a Nanoassemblr (PrecisionNanoSystems). The ethanol was then removed and the buffer replaced by 10 mM HEPES, pH 7.4 comprising 9% Sucrose by dialysis. Finally, the LNP-formulated RNA was adjusted to 0.2 g/L. For in vivo experiments, 8 weeks old female mice (around 25 g, strain 129SV) were injected with the various LNP formulations (see tables 4 and 5). 4 animals were used per group. 10 μg or 30 μg of mRNA formulated with or without 2′-O-methylated oligonucleotide were intravenously injected at a concentration of 0.2 g/l. Bioluminescence imaging was performed 6 hours and 24 hours post LNP injection. […] PpLuc expression was quantified from bioluminescence images recorded for 3 minutes starting 5 minutes after i.v. injection of 3 mg of luciferin (see Table 5).

mice (strain 129SV) [2] = assay: Serum IFNα by ELISA 24 hours post LNP injection; assay type: in vivo, mouse; details: 24 hours post i.v. LNP injection, in a dose-dependent manner (oligo 20% or 6.7% mass), compared to PpLuc mRNA only (FIG. 4B)
Description: For preparation of Lipid nanoparticles (LNP) containing both PpLuc mRNA and 2-O-methylated oligonucleotide, first the 2′-O-methylated oligonucleotide was added to PpLuc mRNA at a weight percentage of either 20% or 6.7% (see Table 3). LNP containing PpLuc mRNA either with or without admixture of 2-O-methylated oligonucleotide were prepared using cationic lipid, cholesterol, PEG-lipid and a neutral lipid. The mRNA was diluted to 1 g/L in citrate buffer, pH 4. The ethanolic lipid solution was mixed with the aqueous RNA solution at a ratio of 1:3 (vol/vol) using a Nanoassemblr (PrecisionNanoSystems). The ethanol was then removed and the buffer replaced by 10 mM HEPES, pH 7.4 comprising 9% Sucrose by dialysis. […] To analyse the influence of the 2′-O-methylated oligonucleotide on immunostimulation, the concentrations of IFNγ, TNFα, IL-6, MIP-1β, RANTES, and MCP1 were measured in sera from blood collected 6 hours post LNP injection by Cytometric Bead Array (CBA), performed as described in paragraph 2.3. […] To further assess the influence of the 2′-O-methylated oligonucleotide on immunostimulation, the concentration of IFNα was measured in sera from blood collected 24 hours post LNP injection by ELISA.

[3] = system: human peripheral blood mononuclear cells (PBMCs); assay: PBMC stimulation: DOTAP co-transfection of immunostimulatory non-coding RNA (RNAdjuvant) with oligonucleotide, cytokines by CBA; assay type: cell-based; details: DOTAP co-transfection with RNAdjuvant 1 μg/ml, oligonucleotide 0.25 μg/ml (25% weight), supernatant 24 hours, compared to immunostimulatory non-coding RNA only (FIG. 1A)
Description: Human peripheral blood mononuclear cells (PBMCs) were isolated from heparinized blood of healthy volunteers by standard Ficoll-Hypaque density gradient centrifugation (Ficoll 1.078 g/ml). PBMCs were re-suspended in RPMI 1640 supplemented with 10% heat-inactivated FCS. After counting, cells are re-suspended at 50 million cells per ml in fetal calf serum, 10% DMSO, and frozen. Before usage, the cells are thawed.
For transfection experiments, 2×10^5 human PBMCs per well were seeded into each well of a 96-well plate in X-Vivo 15 medium (Lonza). For preparation of DOTAP complexes containing both immunostimulatory non-coding RNA and a 2′-O-methylated oligonucleotide (SEQ ID NO: 85), the oligonucleotide was first added to immunostimulatory non-coding RNA at a weight percentage of 25%. For preparation of DOTAP complexes containing both PpLuc mRNA and a 2′-O-methylated oligonucleotide, the oligonucleotide was first added to PpLuc mRNA at a weight percentage of 25%. The molar ratio of PpLuc mRNA to oligonucleotide was thus […] (MW (Oligonucleotide)=2907 g/mol, MW (PpLuc mRNA)=652377 g/mol). DOTAP complexes containing either immunostimulatory non-coding RNA or PpLuc mRNA without or with oligonucleotide were formed at a ratio of 3 μl of DOTAP per 1 μg of RNAdjuvant or 1 μg of mRNA. […] To quantify background stimulation, PBMC were incubated either with DOTAP alone (“vehicle”) or medium only. […]
In supernatants collected from PBMC stimulated without or with 2-O-methylated oligonucleotide, the concentrations of IFN-α, IFN-γ, TNF, were measured by Cytometric Bead Array (CBA) according to the manufacturer's instructions (BD Biosciences) using the following kits: Human Soluble Protein Master Buffer Kit (catalog no. 558264), Assay Diluent (catalog no. 560104), Human IFN-α Flex Set (catalog no. 560379), Human IFN-γ Flex Set (catalog no. 558269), Human TNF Flex Set (catalog no. 560112); all kits from BD Biosciences. The data was analyzed using the FCAP Array v3.0 software (BD Biosciences).

## 5′-GAG CGmG CCA-3′ (GAGCNGCCA; 2'-O-methyl guanosine at position 5; 9mer oligonucleotide; modified_base (5)..(5) n can be any nucleotide, wherein the nucleotide is 2-O-methylated, preferably a 2-O-methylated guanosine) [Gm18, 9-mer 2′-O-methylated RNA oligonucleotide; position 5 is 2′-O-methylated guanosine (Gm); antagonist of TLR7 and 8]
Mice (strain 129SV) [1]
  expression of PpLuc (bioluminescence imaging): increases the expression
Mice (strain 129SV) [2]
  release of IFNα in sera (ELISA): strongly decreases the release
[3]
  secretion of cytokine INF-a: reduced secretion
  secretion of cytokine INF-y: reduced secretion
  secretion of cytokine TNF: reduced secretion
